Columns and labels:
human MTP = human MTP (Homo sapiens, UniProt P55157); experiment: human MTP activity assay (SPA, 3H-triolein transfer between liposomes); assay type: biochemical; settings: 3H-triolein transfer from donor to acceptor liposomes, 25 min incubation at 37° C., streptavidin-SPA beads
Experimental: The ability of the compounds of this invention to inhibit human MTP activity is measured by an in vitro assay where MTP tranfers 3H-triolein between phosphatidylcholine liposomes. The specificity of the compounds of the invention is established by comparing the effects on apoB-100 and apoprotein A-1 production. A specificity of at least 100 is preferred.
The human MTP activity assay was established using SPA technology. Donor liposomes were prepared with 3H-triolein and phosphatidylcholine, while acceptor liposomes contained biotinylated phosphatidylethanolamine and phosphatidylcholine. The MTP-mediated 3H-triolein transfer onto acceptor liposomes was allowed by a 25 min incubation at 37° C., and quantified by the addition of streptavidin-SPA beads.

Chain of human MTP (P55157 19-894): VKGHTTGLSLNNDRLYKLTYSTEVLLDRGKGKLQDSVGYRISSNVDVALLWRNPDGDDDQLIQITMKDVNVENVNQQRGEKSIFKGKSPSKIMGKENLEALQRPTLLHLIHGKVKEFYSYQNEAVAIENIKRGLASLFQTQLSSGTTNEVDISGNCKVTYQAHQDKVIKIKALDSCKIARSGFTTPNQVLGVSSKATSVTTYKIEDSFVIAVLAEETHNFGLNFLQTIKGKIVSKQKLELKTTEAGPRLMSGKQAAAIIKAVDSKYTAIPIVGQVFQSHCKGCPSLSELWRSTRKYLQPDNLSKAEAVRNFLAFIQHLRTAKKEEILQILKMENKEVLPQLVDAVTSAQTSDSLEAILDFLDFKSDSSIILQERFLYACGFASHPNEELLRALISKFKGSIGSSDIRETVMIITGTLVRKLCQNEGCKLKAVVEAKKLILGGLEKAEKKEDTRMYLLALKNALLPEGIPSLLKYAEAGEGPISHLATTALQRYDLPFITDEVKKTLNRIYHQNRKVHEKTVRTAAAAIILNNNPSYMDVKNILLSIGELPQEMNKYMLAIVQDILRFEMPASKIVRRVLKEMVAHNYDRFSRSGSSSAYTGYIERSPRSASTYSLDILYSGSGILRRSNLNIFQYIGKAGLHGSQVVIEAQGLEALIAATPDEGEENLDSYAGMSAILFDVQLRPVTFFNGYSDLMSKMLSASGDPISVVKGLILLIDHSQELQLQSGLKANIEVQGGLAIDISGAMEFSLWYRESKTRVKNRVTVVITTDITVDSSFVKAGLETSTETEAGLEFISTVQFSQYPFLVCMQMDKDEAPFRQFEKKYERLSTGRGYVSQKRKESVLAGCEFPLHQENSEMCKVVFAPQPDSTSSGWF
Chain of human MTP (P07237 18-508 partner): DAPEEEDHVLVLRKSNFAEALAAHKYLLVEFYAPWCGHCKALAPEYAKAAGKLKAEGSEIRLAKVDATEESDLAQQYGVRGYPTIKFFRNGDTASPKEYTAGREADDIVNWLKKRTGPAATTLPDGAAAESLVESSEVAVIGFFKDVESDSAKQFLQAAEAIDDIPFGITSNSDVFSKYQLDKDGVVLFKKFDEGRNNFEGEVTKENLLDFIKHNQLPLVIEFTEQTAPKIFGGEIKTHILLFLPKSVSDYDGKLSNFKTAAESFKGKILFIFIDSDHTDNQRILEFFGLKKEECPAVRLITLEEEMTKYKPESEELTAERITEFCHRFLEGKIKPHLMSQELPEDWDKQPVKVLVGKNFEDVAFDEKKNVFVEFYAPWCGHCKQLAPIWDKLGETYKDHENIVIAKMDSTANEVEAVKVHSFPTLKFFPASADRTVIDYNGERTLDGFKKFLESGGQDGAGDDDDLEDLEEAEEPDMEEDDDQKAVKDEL

IC50 (human MTP)	melting point	Compound
5.6 nM		O=C(Nc1ccc(N2CCN(C(c3ccccc3)c3noc(-c4ccccc4)n3)CC2)cc1)c1ccccc1-c1ccc(C(F)(F)F)cc1 (stereo not drawn) [Example 9, 4′-Trifluoromethyl-biphenyl-2-carboxylic acid [4-(4-(α(5-phenyl-[1,2,4]oxadiazol-3-yl)-benzyl)-piperazin-1-yl)-phenyl]-amide]
3.2 nM	130 to 135 °C	COC(=O)C(c1ccccc1)N1CCN(c2ccc(NC(=O)c3ccccc3-c3ccc(C(F)(F)F)cc3)cc2)CC1 (stereo not drawn) [Example 11, 4′-Trifluoromethyl-biphenyl-2-carboxylic acid [4-(4-(α-(methoxcyarbonyl)-benzyl)-piperazin-1-yl)-phenyl]-amide]
157 nM		O=C(Nc1ccc(N2CCN(C(Cn3cccn3)c3ccccc3)CC2)cc1)c1ccccc1-c1ccc(C(F)(F)F)cc1 (stereo not drawn) [Example 10, 4′-Trifluoromethyl-biphenyl-2-carboxylic acid [4-(4-(α-((pyrazol-1-yl)-methyl)-benzyl)-piperazin-1-yl)-phenyl]-amide]
	204 °C	N#CC(c1ccccc1)N1CCN(c2ccc(NC(=O)c3ccccc3-c3ccc(C(F)(F)F)cc3)cc2)CC1 (stereo not drawn) [Example 5, 4′-Trifluoromethyl-biphenyl-2-carboxylic acid [4-(4-(α-cyano-benzyl)-piperazin-1-yl)-phenyl]-amide]
	200 to 202 °C	CC(=O)C(c1ccc(F)cc1)N1CCN(c2ccc(NC(=O)c3ccccc3-c3ccc(C(F)(F)F)cc3)cc2)CC1 (stereo not drawn) [Example 7, 4′-trifluoromethyl-biphenyl-2-carboxylic acid [4-(4-(4-fluoro-α-acetyl-benzyl)-piperazin-1-yl)-phenyl]-amide]
	158 to 160 °C	CC(c1cccc(C(F)(F)F)c1)N1CCN(c2ccc(NC(=O)c3ccccc3-c3ccc(C(F)(F)F)cc3)cc2)CC1 (stereo not drawn) [Example 4, 4′-Trifluoromethyl-biphenyl-2-carboxylic acid [4-(4-(3-trifluoromethyl-α-methyl-benzyl)-piperazin-1-yl)-phenyl]-amide]

Second part, the compound before the results:

Compound	IC50 (human MTP)	melting point
N#Cc1cccc(C(c2ccc[nH]2)N2CCN(c3ccc(NC(=O)c4ccccc4-c4ccc(C(F)(F)F)cc4)cc3)CC2)c1 (stereo not drawn) [Example 17, 4′-Trifluoromethyl-biphenyl-2-carboxylic acid [4-(4-(3-cyano-α-(pyrrol-2-yl)-benzyl)-piperazin-1-yl)-phenyl]-amide]		202 to 203 °C
Cc1ccc(C(=O)Nc2ccc(N3CCN(C(C)c4cccc(C#N)c4)CC3)cc2)c(-c2ccc(C(F)(F)F)cc2)c1 (stereo not drawn) [Example 2, 5-Methyl-4′-trifluoromethyl-biphenyl-2-carboxylic acid [4-(4-(3-cyano-α-methyl-benzyl)-piperazin-1-yl)-phenyl]-amide]	1 nM	192 to 194 °C
O=C(Nc1ccc(N2CCN(C(C(=O)c3ccccc3)c3ccccc3)CC2)cc1)c1ccccc1-c1ccc(C(F)(F)F)cc1 (stereo not drawn) [Example 8, 4′-Trifluoromethyl-biphenyl-2-carboxylic acid [4-(4-(α-benzoyl-benzyl)-piperazin-1-yl)-phenyl]-amide]	40 nM	165 °C
CC(c1ccccc1)N1CCN(c2ccc(NC(=O)c3ccccc3-c3ccc(C(F)(F)F)cc3)cc2)CC1 (stereo not drawn) [Example 1, 4′-Trifluoromethyl-biphenyl-2-carboxylic acid [4-(4-(α-methyl-benzyl)-piperazin-1-yl)-phenyl]-amide]		194 to 196 °C
O=C(Nc1ccc(N2CCN(C(C(=O)NCc3ccccn3)c3ccccc3)CC2)cc1)c1ccccc1-c1ccc(C(F)(F)F)cc1 (stereo not drawn) [Example 14, 4′-Trifluoromethyl-biphenyl-2-carboxylic acid [4-(4-(α-((pyridin-2-yl-methyl)-aminocarbonyl)-benzyl)-piperazin-1-yl)-phenyl]-amide]	3 nM	139 to 141 °C
